Results from a melting point compilation (Tetko et al.; mined from patent text by program, amines drawn as free bases though some values may be those of a salt).

Row | melting point [°C] | SMILES
1 | 63 to 64 | COc1ccc(CCCOCCCCCNCC(O)c2cc(Cl)c(N)c(Cl)c2)cc1 (stereo not drawn)
2 | 197 to 200 | CCCCc1nc[nH]c(=O)c1Cc1ccc(-c2ccccc2C(=O)O)cc1
3 | 152 to 154 | CCCn1c(COCC)nc2c(N)nc3ccc(OCc4ccccc4)cc3c21
4 | > 155 | CCCCNC(=O)c1ccc(Cl)c(-n2nc(CCCC)n(Cc3ccc(-c4ccccc4S(=O)(=O)NC(=O)c4ccccc4Cl)cc3)c2=O)c1
5 | 123 to 125 | CCc1nnc(NC(=O)C(c2ccccc2)c2ccccc2)o1
6 | > 300 | Cn1c(=O)c2c(-c3ccccc3)n(-c3ccccc3N)cc2n(C)c1=O
7 | 220 to 221 | O=C(O)c1cc2cc(-c3ccccc3)ccc2o1
8 | 167 to 168 | CNC(=O)c1cc2ccccc2c(-c2ccccc2I)n1
9 | 151 to 152 | Cc1ccc(S(=O)(=O)n2ccc3cc(-c4ccccc4)cnc32)cc1
10 | 130 | CC(=O)Nc1nc(CCc2ccc(CON)cc2)cs1
11 | 120 | CCN(C(=O)n1nnc2cc(Cl)c(Cl)cc21)c1ccccc1
12 | 125 to 127 | CCOC(=O)c1c(Br)c2cc(OCc3ccccc3)ccc2n1C
13 | 157 to 159 | Nc1cccc2c(-c3ccc(=O)[nH]n3)c(-c3ccccc3)nn12
14 | 148 to 150 | COc1ccc2c(=O)cc(-c3ccccc3Cl)oc2c1
15 | 112 to 114 | O=C(O)CCCCCOc1nc(-c2ccccc2)c2ccccc2n1
16 | 178 to 179 | CC(C)(CNc1ccnc2cc(Cl)ccc12)NCc1ccc(Cl)c(Cl)c1

Row | melting point [°C] | SMILES
17 | 125 | CCOC(=O)N(C)C1CCN(c2nc3ccccc3n2Cc2ccc(F)cc2)CC1
18 | 109 to 110 | O=C1C(=Cc2ccco2)CCc2cc(OCCn3ccnc3)ccc21
19 | 231 to 232 | CC(=O)Nc1ccc(-c2nc(=O)c3ccccc3s2)cc1
20 | 202 to 204 | O=C(O)C(=O)c1ccc(OCCCn2c(=O)c3ccccc3c3ccccc32)cc1
21 | 166 to 167 | O=C(O)CCc1cn(Cc2cccc(C(=O)NCCc3ccccn3)c2)nc1-c1ccccc1
22 | 250 to 252 | COc1ccc(C2=C(c3ccc(O)cc3)CCCc3cc(O)ccc32)cc1
23 | 277 | CC(C)c1cccc(C(C)C)c1N1C(=O)c2cccc3c(Br)ccc(c23)C1=O
24 | 205 to 206 | CCCc1nn(C)c2c(=O)[nH]c(-c3cc(NS(C)(=O)=O)ccc3OCC)nc12
25 | 175 to 176 | Clc1cc2nc(Cl)n(Cc3ccccc3)c2cc1Cl
26 | 101 to 102 | CN(C)Cc1cccc(NCCCNc2nc(N)nn2C)c1
27 | 127 to 130 | CCN(CC)CCOc1ccc(NC(=O)C#Cc2ccc(C(F)(F)F)cc2Cl)cc1N
28 | 165 to 166 | COc1ccc(-c2cc3ccccc3[nH]2)cc1NCc1ccc(O)c([N+](=O)[O-])c1
29 | 195 to 196 | O=[N+]([O-])c1cc(I)ccc1Nc1cccc(-c2ccccn2)c1
30 | 178 to 180 | O=C(O)Cc1cccc2c(=O)cc(-c3c(F)cccc3F)oc12
31 | 185 to 187 | FC(F)(F)c1ccc(-c2cc(Oc3ccc4cccnc4c3)ncn2)c(Br)c1

More lines, now with the values behind:

Row | SMILES | melting point [°C]
32 | Cc1cc2c(-c3cccc(N)c3)c(CC(=O)Nc3ccc(Cl)cc3C(F)(F)F)c(=O)oc2cc1Cl | 206 to 207
33 | COc1ccc(C=Cc2cccc(C(=O)O)c2)cc1OC1CCCC1 | 93 to 94
34 | COc1cc(-c2csc(-n3c(C)ccc3C)n2)c(OC)cc1C | 92 to 93
35 | CCn1c(C(c2cccc(F)c2)c2cccc(F)c2)nc(-c2ccncc2)c1-c1ccc(Cl)cc1 | 184 to 186
36 | CCOC(=O)C1CCC2(NCCc3cc(OC)c(OC)cc32)C(C2c3cc(OC)c(OC)cc3CCN2CC)C1 (stereo not drawn) | 140 to 142
37 | C=CCC(CO)C(O)c1ccccc1 (stereo not drawn) | 41 to 43
38 | CCCCCCCCCCCCCCCCCC(=O)NCCCSc1ccncc1 | 88 to 89
39 | Cc1cc(Cl)ccc1OCC(=O)Nc1ccc(S(N)(=O)=O)cc1 | 218 to 220
40 | O=C=Nc1ccc(OCCOc2ccc(N=C=O)cc2)cc1 | 95 to 97
41 | CC(=O)Nc1c(C#N)c(OC(C)=O)c(C(C)=O)n1C | 140 to 141
42 | CSc1ccc2c3c(cccc13)C(=O)N2C(C)C | 70 to 71
43 | CCC1c2cccn2-c2ccc(C(F)(F)F)cc2N1S(=O)(=O)c1ccc(O)c(Cl)c1 (stereo not drawn) | 169 to 171
44 | COc1ccc(-c2[nH]nc3c2C(=O)c2c(NC(=O)NNC(=O)c4ccc(N)cc4)cccc2-3)cc1 | 247
45 | O=c1[nH]c2ccccc2nc1-c1cc(O)c(O)c([N+](=O)[O-])c1 | > 300
46 | Cc1ccc(-c2ncc3c(n2)CCCC3)nc1-c1ccc(C#N)cc1 | 178 to 182
47 | CCOP(=S)(OCC)Oc1cc(C(=O)OC)sc1C(=O)OC | 50
48 | Cc1nccnc1NCCN1CCC(NC(=O)c2cc(Cl)c(N)c3c2OC(C)(C)C3)CC1 | 163
49 | O=C(O)CCCc1cc2nc(Cl)ccc2n1S(=O)(=O)c1cc(C(F)(F)F)cc(C(F)(F)F)c1 | 155 to 164
50 | S=c1nc2c(Cl)cccn2c(=S)n1-c1ncccc1Cl | 120 to 122
51 | CCCCCCCCCCCCS(=O)(=O)N1CCCSC1=C[N+](=O)[O-] | 116 to 117
52 | O=C(c1cc(-c2ccccc2)c(=O)n2c1-c1sccc1C2)N1CCOCC1 | 225 to 227
53 | CCOc1cc(-c2ccc3c(c2)C=C(C(=O)Nc2ccc(CN(C)C4CCOCC4)cc2)CCS3(=O)=O)ccc1C#N | 244 to 247
54 | Nc1nc(O)c2c(n1)NCC(CCc1nc(C(=O)N[C@@H](CCC(=O)O)C(=O)O)c[nH]1)C2 (stereo partly drawn) | > 260

Row | SMILES | melting point [°C]
55 | COC(=O)CC[C@H](NC(=O)c1ccc(NCCc2c(N(C(C)=O)C(C)=O)nc(NC(C)=O)[nH]c2=O)cc1)C(=O)OC | 168 to 178
56 | Cc1cccc(Nc2ncnc3cnc(NC4CCN(C(=O)N(C)C)CC4)nc23)c1 | 185 to 187
57 | CSc1nc2ccnn2c(NCc2ccco2)c1C#N | 110
58 | C#Cc1ccc(-c2[nH]c(=O)c3cc(OC)ccc3c2[N+](=O)[O-])cc1 | 246 to 248
59 | O=c1[nH]c(=O)n(CCCCBr)c2nccnc12 | 154 to 155
60 | CCCCNC(=O)C(C)(C)N=NC(C)(C)C(=O)NCCCC | 65
61 | Cc1ccc2c(c1NC(=O)CC1c3ccccc3Oc3ccccc31)OC(C)C2 (stereo not drawn) | 290 to 291
62 | COc1ccc2c(c1)c(CC#N)cn2C(=O)OC(C)(C)C | 130
63 | CS(=O)(=O)Nc1ccc(NS(C)(=O)=O)c(S)c1 | 174 to 176
64 | CC(=O)N[C@@H](CSC(=O)C(C)C)C(=O)OC(C)C | 59 to 59.5
65 | CN(C)C1(c2ccccc2)CCC(CNC(=O)NCCc2c[nH]c3ccc(F)cc23)CC1 (stereo not drawn) | 70 to 73
66 | Cc1nnc(N2N=C(c3ccc(Cl)cc3)c3cc4c(cc3C[C@H]2C)OCO4)s1 | 105 to 108
67 | COC(=O)C(=O)c1ccc(OCCOc2cc(OC)c(OC)c(OC)c2)cc1 | 82 to 83
68 | Clc1ccc(C2(CCBr)OCC(c3ccc(Cl)cc3Cl)O2)cc1 (stereo not drawn) | 82.7
69 | N#Cc1ccc(CC2CC3CCC(C2)N3c2ccccc2)c2ccccc12 (stereo not drawn) | 103 to 104
70 | CCOC(=O)c1c(CN2CCCCC2)nc2cc(OC)c(OC)cc2c1-c1ccc(OC)c(OC)c1 | 148 to 149
71 | COc1cc(Br)c(Br)cc1C=NNC(=N)NN=Cc1cc(Br)c(Br)cc1OC | 265 to 267
72 | Cc1ccc(S(=O)(=O)n2ccc3c2CC(c2ccccc2)CC3=O)cc1 (stereo not drawn) | 118 to 120
73 | C/C(=C\c1ccc(C=O)cc1)c1ccc2c(c1)C(C)(C)CCO2 | 102 to 104
74 | COC(=O)C1CCC2C3CCC4CC(=O)CCC4(C)C3C(NC3CCCC3)CC12C (stereo not drawn) | 156 to 158
75 | NC(=O)N(O)CCOCc1ccco1 | 72 to 75
76 | CC(=O)c1ccc(NS(C)(=O)=O)c(C(=O)Nc2ccc(F)cc2F)c1 | 153 to 155
77 | Fc1ccc(N2CCN(Cc3n[nH]c4ccccc34)CC2)cc1 | 191 to 192

Row | SMILES | melting point [°C]
78 | CCCCC[C@H]1CC[C@H](COc2ccc(C(=O)C(F)(F)F)cc2)CC1 | 60
79 | O=C(O)CCCCCCCCCCCCCCCCCCC(=O)ON1C(=O)CCC1=O | 122 to 124
80 | COc1cc2c(cc1OC)N(N)C(=O)C(C(=O)OC(C)(C)C)C2 (stereo not drawn) | 155 to 157
81 | C=CCc1c(O)cccc1C1=NNC(=O)CC1 | 197 to 200
82 | CCOC(=O)C(CC)n1c(NC(=O)c2cccs2)nc2cc(C(=O)N(C)C3CCCCC3)ccc21 (stereo not drawn) | 82 to 84
83 | CCOC(=O)C(C)(C)c1ccc(NC(C)=O)cc1 | 76 to 76.5
84 | O=C1NC(=O)N(Cc2ccc(Cl)cc2)C1O (stereo not drawn) | 149 to 150
85 | CN(C)C1(c2ccccc2)CCC(c2[nH]c3ccccc3c2CC2CCCCC2)CC1 (stereo not drawn) | 195 to 198
86 | CC(=O)NC1CC(C)(C)NC(C)(C)C1 | 100 to 102
87 | CC(C)S(=O)(=O)NC(=O)Nc1ccc(Cl)c(C(F)(F)F)c1 | 135 to 140
88 | O=[N+]([O-])C=C1C2CC3CC(C2)CC1C3 | 78 to 81
89 | O=C1NC(=O)C(Cc2ccccc2)S1 (stereo not drawn) | 83 to 86
90 | CCOC(=O)C(C)(C)Oc1ccc(CCNC(=O)CCc2cc(C(C)(C)C)c(O)c(C(C)(C)C)c2)cc1 | 168 to 171
91 | O=c1[nH][nH]c(=O)c2c(O)c3cc([N+](=O)[O-])ccc3nc12 | 264
92 | O=C(O)Cn1cccc(O)c1=O | 203 to 205
93 | CSc1ccc(C(=O)c2cc(-c3cccnc3)c(N3CCOCC3)s2)cc1 | 127
94 | O=C(NS(=O)(=O)c1c(F)cccc1F)N1CCC=N1 | 183
95 | N#CCCNC(=O)c1cccc(-c2cccc3c(F)c(Cc4cccc(C(F)(F)F)c4)sc23)c1 | 66 to 67
96 | CCCCCCCCC=CCCCCCCCCCCCCNC(=O)C=CC(=O)O | 55
97 | CC(CCc1c[nH]c2c(F)cc(F)cc12)N(CC1CC1)C1COc2c(F)ccc(C(N)=O)c2C1 (stereo not drawn) | 175 to 180
98 | CC(=O)N1CCC2(CC1)C(=O)N(CC(=O)Nc1c(C(C)C)cccc1C(C)C)C(=O)N2c1ccc(C)cc1 | 136 to 138
